Data taken from patent publication US7838207B2, “Surrogate cell-based system and method for assaying the activity of hepatitis C virus NS3 protease” (Boehringer Ingelheim Canada Ltd., priority 1999, dated 2010).

Tested on: tetracycline transactivator (tTA)
Experiment: Tetracycline internal control: luciferase assay in 293 cells co-transfected with chimera G and pUHC13-3 reporter
Type: cell-based
Conditions: in the presence of tetracycline (over 2,000,000 cps in its absence)
Text: Expression of the luciferase reporter gene is controlled by NS3 processing of a tetracycline responsive transcriptional trans-activator. Luciferase assay performed on extracts of 293 cells co-transfected with construct G or H, or the positive control tTA-producing plasmid (pUHD15-1), and the pUHC13-3 plasmid containing the luciferase reporter. Closed and open bars indicate the absence and presence of tetracycline, respectively. Note that construct G produces a tetracycline controlled signal; inactivation of the NS3 protease activity (in construct H) abolishes this signal.
The three families (clones A, D, and G) of HCV-tTA chimeras, and their active site and cleavage site mutant variants, were each co-transfected with the pUHC13-3 reporter into 293 cells to determine the extent of NS3-dependent luciferase expression (FIG. 6). Cells in 35 mm wells were co-transfected with each of the constructs described in FIGS. 2A to 2I and the pUHC13-3 reporter plasmid using the calcium phosphate method. The cells were harvested 48 hours post-transfection and washed twice in phosphate buffered saline. […] An aliquot of 10 μl of supernatant was mixed with 50 μl of the luciferase assay reagent (Promega) in a 96 well plate and the amount of light produced measured using a Digene luminometer or Packard top-count scintillation counter. […]

Work on CN(C)[C@@H]1C(O)=C(C(N)=O)C(=O)[C@@]2(O)C(O)=C3C(=O)c4c(O)cccc4[C@@](C)(O)[C@H]3C[C@@H]12 [tetracycline] yielded a Luciferase activity of 40000 cps.
